# Experimental data taken from patent US6939992B2, “Polymorphic forms of sertraline hydrochloride” (Ciba Specialty Chemicals Corporation, priority 1999, dated 2005).
# Where a name gives a salt, the structure may show the parent alone.
# Assays:
# [1] = Solubility of the polymorphic form; assay type: physicochemical
# [2] = Thermal stability / transformation on heating in a DSC apparatus; assay type: physicochemical
# Experimental: The crystalline polymorph CSC2 upon heating is transformed into form V at temperatures of about >120° C., whereupon a second transformation takes place into form III at temperatures of about >160° C. (experiment performed in a DSC apparatus with heating rate of 20° C./minute).
# [3] = disclosed in U.S. Pat. No. 5,248,699; cited from earlier work
# [4] = DSC apparatus, heating rate of 20° C./minute
smiles,measurement,setting,value
"CN[C@H]1CC[C@@H](c2ccc(Cl)c(Cl)c2)c2ccccc21 [CSC2, (1S-cis)-4-(3,4-dichlorophenyl)-1,2,3,4-tetrahydro-N-methyl-1-naphthalenamine hydrochloride]",solubility,[1],high
same,thermal stability,[2],good
same,temperature of second transformation into form III upon heating,[2]; [4],> 160 °C
same,temperature of transformation into form V upon heating,[2]; [4],> 120 °C
"CN[C@H]1CC[C@@H](c2ccc(Cl)c(Cl)c2)c2ccccc21 [form I, sertraline hydrochloride]",stability compared with the other crystalline forms of sertraline hydrochloride,[3],greatest stability
